pEC50, pIC50, pKi: −log10 of the molar value. “And” between values parts separate entries of the source, which are not always exact repeats. Identical values can stand only once. Like-named read-outs stand apart in the source and are kept apart here.
How the values were obtained:
P. falciparum strain 3D7 = test: Proliferation of intraerythrocytic P. falciparum 3D7 (SYBR Green, 72 h); type: cell-based, Plasmodium falciparum; details: chloroquine sensitive strain 3D7, 72 h, read-out: Pf 3D7 EC50
Experimental: Two P. falciparum strains were used in this study and were provided by the MR4 Unit of the American Type Culture Collection (ATCC, Manassas, VA). Those two strains were the chloroquine sensitive strain 3D7 and the K1 strain that is resistant to chloroquine, pyrimethamine, and sulfadoxine.
Asynchronous parasites were maintained in culture based on the method of Trager. Parasites were grown in presence of fresh group O-positive erythrocytes (Key Biologics, LLC) in Petri dishes at a hematocrit of 4–6% in RPMI based media (RPMI 1640 supplemented with 0.5% AlbuMAX II, 25 mM HEPES, 25 mM NaHCO3 (pH 7.3), 100 μg/mL hypoxanthine, and 5 μg/mL gentamycin). Cultures were incubated at 37°C in a gas mixture of 90% N2, 5% O2, 5% CO2. For EC50 determinations, 20 μL of RPMI 1640 with 5 μg/mL gentamycin were dispensed per well in an assay plate (Corning 384-well microtiter plate, clear bottom, tissue culture treated, catalog no. 8807BC). 40 nL of compound, previously serially diluted in a separate 384-well white polypropylene plate (Corning, catalog no. 8748BC), was dispensed to the assay plate by hydrodynamic pin transfer (FP1S50H, V&P Scientific Pin Head) and then 20 μL of a synchronized culture suspension (1% rings, 4% hematocrit) was added to each well, thus making a final hematocrit and parasitemia of 2% and 1%, respectively. Assay plates were incubated for 72 h, and the parasitemia was determined by a method previously described: Briefly, 10 μL of the assay solution in PBS (10X SYBR Green I, 0.5% v/v triton X-100, 0.5 mg/mL saponin) was added to each well. Assay plates were shaken for 1 min, incubated in the dark for 90 min, and read with an Envision (Perkin Elmer) spectrophotometer at Ex/Em of 485 nm/535 nm. EC50s were calculated with a custom program (RISE, Robust Investigation of Screening Experiments) using a four-parameter logistic equation.

[1] = system: BJ cell line (human foreskin fibroblasts); test: Mammalian cell drug susceptibility assay (Cell Titer Glo, 72 h); type: cell-based
Experimental: The BJ cell line (human foreskin fibroblasts), which express GLUT1 [26], was purchased from the ATTC and cultured according to recommendations. 1000 exponentially growing cells were plated per well (25 μL) in white polystyrene flat bottom sterile 384-well tissue culture treated plates (Corning), and incubated overnight at 37°C in a humidified 5% CO2 incubator. DMSO inhibitor stock solutions were pin-transferred (V&P Scientific) the following day. Plates were placed back in the incubator for 72 h incubation and equilibrated at room temperature for 20 min before addition of 25 μL Cell Titer Glo (Promega) to each well. Plates were shaken on an orbital shaker for 2 min at 500 rpm. Luminescence was read after 15 min on an Envision plate reader (Perkin Elmer). EC50 values were calculated with a custom program (RISE, Robust Investigation of Screening Experiments) using a four-parameter logistic equation.

[2] = system: P. falciparum strain 3D7 intraerythrocytic forms; design: method as in PubChem web site, http://pubchem.ncbi.nlm.nih.gov/; details: reported values; ref PubChem web site, http://pubchem.ncbi.nlm.nih.gov/; read-out: EC50 3D7 In vitro; cited from earlier work
PfHT = PfHT (Plasmodium falciparum, UniProt Q7KWJ5); test: Uptake of [3H] D-glucose by L. mexicana Δlmxgt1-3 null mutants expressing PfHT; type: cell-based; design: expressed in transfected cells; host or cells: Leishmania mexicana promastigotes, Δlmxgt1-3 hexose transporter null mutant; details: for pKi: linear regression; for Vmax: glucose uptake by PfHT; for mode of inhibition of glucose uptake through PfHT: substrate saturation curves, one-way ANOVA of Vmax and Km; for SIglucose GLUT1/PfHT (Specificity Index, IC50 for GLUT1/IC50 for PfHT): uptake of 100 μM [3H] D-glucose
Experimental: (§1) Glucose uptake assays employed logarithmic phase L. mexicana promastigotes of the Δlmxgt1-3 hexose transporter null mutant strain expressing either PfHT or GLUT1 from an episomal expression vector [17]. Parasites (1x10^7) were resuspended in 100 μL phosphate buffered saline, pH 7.4. Prior to uptake, parasites were pre-incubated for 5 min with inhibitor, and uptake was initiated by adding 100 μL of 200 μM [^3H] D-glucose diluted to 4.0 μCi/mL. Uptake was terminated, typically after 1 min, by centrifuging the parasites through a layer of dibutyl phthalate, as described. Control uptake assays employing [^3H] hypoxanthine, [^3H] uridine, and [^3H] L-proline were performed similarly. Analysis of kinetic data was performed using Graph Pad Prism 4.0b software (Graph Pad).

human GLUT1 = molecular target: T1, human GLUT1 (Homo sapiens, UniProt P11166); test: Uptake of [3H] D-glucose by L. mexicana Δlmxgt1-3 null mutants expressing GLUT1; type: cell-based; design: expressed in transfected cells; host or cells: Leishmania mexicana promastigotes, Δlmxgt1-3 hexose transporter null mutant; details: inhibition of uptake of 100 μM [3H] D-glucose, 1 min uptake assay
T1 sequence (P11166 1-492): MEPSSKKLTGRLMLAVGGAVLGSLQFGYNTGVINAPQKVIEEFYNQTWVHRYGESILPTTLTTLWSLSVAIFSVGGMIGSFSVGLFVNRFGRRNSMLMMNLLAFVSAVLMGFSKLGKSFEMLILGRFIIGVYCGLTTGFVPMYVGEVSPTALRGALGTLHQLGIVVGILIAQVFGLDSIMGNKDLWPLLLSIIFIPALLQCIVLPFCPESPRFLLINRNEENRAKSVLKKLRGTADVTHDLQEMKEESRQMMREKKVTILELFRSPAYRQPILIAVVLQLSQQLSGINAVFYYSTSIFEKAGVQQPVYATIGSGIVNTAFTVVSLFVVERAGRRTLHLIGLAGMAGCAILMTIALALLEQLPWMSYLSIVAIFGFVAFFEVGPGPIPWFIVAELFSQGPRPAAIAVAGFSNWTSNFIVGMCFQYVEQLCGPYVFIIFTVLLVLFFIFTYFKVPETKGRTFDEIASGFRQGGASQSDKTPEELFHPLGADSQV
Experimental: as §1

[3] = Plasmodium falciparum, 3D7, 72 h
[4] = Kic (Ki for binding of inhibitor to free transporter), from plot of Km/Vmax versus [I]
[5] = Kiu (Ki for binding of inhibitor to substrate-bound transporter), from plot of 1/Vmax versus [I]

PfHT, sequence (Q7KWJ5 whole entry): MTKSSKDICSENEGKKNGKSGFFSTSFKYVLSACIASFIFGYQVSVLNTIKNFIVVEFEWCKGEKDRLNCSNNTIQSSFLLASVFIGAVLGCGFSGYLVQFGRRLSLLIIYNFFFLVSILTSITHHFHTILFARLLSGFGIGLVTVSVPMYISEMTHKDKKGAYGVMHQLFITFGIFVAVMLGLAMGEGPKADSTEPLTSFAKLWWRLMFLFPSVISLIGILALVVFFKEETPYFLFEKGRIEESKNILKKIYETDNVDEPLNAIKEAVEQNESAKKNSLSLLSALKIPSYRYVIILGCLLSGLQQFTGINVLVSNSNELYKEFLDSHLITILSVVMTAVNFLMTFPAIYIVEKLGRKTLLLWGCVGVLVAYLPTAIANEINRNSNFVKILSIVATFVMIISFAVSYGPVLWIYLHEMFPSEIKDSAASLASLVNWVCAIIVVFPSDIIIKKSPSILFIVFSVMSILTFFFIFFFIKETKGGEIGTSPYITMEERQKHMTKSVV

Row | SMILES | pEC50 (P. falciparum strain 3D7; [3]) | pEC50 (P. falciparum strain 3D7) | pEC50 [1] | pEC50 [2] | pIC50 (PfHT) | selective inhibition of PfHT versus GLUT1 (PfHT) [fold] | pKi (PfHT; [4]) | pKi (PfHT; [5]) | Vmax (PfHT; [I] 50 nM) | Vmax (PfHT; [I] 100 nM) | mode of inhibition of glucose uptake through PfHT (PfHT) | SIglucose GLUT1/PfHT (Specificity Index, IC50 for GLUT1/IC50 for PfHT) (PfHT) | pIC50 (human GLUT1) | pIC50 (PfHT; read-out: IC50 PfHT, inhibition of uptake of 100 μM [3H] D-glucose, 1 min uptake assay) | lower affinity for PfHT than Compound 1 (PfHT) [fold] | Vmax (PfHT; [I] 600 nM) | Vmax (PfHT; [I] 1000 nM)
1 | COc1cc(Nc2ccc3cc(S(=O)(=O)N4CCCCC4C)ccc3n2)cc(OC)c1OC (stereo not shown) [Compound 1] | ~6.00 | 5.85 | < 4.64 | 5.91 | 7.41 | 82 | 7.48 | 7.64 | 280 ± 15 pmol per 10^7 cells per min | 131 ± 4 pmol per 10^7 cells per min | non-competitive inhibitors | 82 | 5.49 and < 5.52 |  |  |  | 
2 | CC1CCCCN1S(=O)(=O)c1ccc2nc(Nc3ccccc3)ccc2c1 (stereo not shown) [Compound 10] | < 5.00 | 4.82 | < 4.60 |  |  |  |  |  |  |  |  |  | < 5.00 | < 5.00 |  |  | 
3 | CC1CCCCN1S(=O)(=O)c1ccc2nc(Nc3ccc(C#N)cc3)ccc2c1 (stereo not shown) [Compound 12] | < 5.00 | < 4.80 | < 4.59 |  | 5.57 |  |  |  |  |  |  | 0.92 | 5.60 |  |  |  | 
4 | CC1CCCCN1S(=O)(=O)c1ccc2nc(Nc3cccc(C#N)c3)ccc2c1 (stereo not shown) [Compound 13] | < 5.00 | 4.96 | < 4.60 |  | 6.49 | 94 | 6.48 | 6.59 |  |  | non-competitive inhibitors | 94 | 4.52 |  | 8 | 245 ± 67 pmol per 10^7 cells per min | 93 ± 53 pmol per 10^7 cells per min

Reference: paper PMC4404333, “Identification of Selective Inhibitors of the Plasmodium falciparum Hexose Transporter PfHT by Screening Focused Libraries of Anti-Malarial Compounds” (PLoS ONE, 2015)
